From patent publication US20070009886A1, “Carbohydrate-associated proteins” (Incyte Corporation, priority 2002, published 2007)

Columns and labels:
[1] = relative to progesterone; cited from earlier work
[2] = intranasal, relative to hydrocortisone; cited from earlier work
[3] = test system: SEQ ID NO:37 expression in PBMCs; experiment: Microarray analysis of SEQ ID NO:37 expression in cytokine-treated versus untreated PBMCs; format: cell-based, human; settings: 10 ng/ml recombinant IL-4, 2 hours, pooled PBMCs of 6 healthy donors
Experimental: Total RNA is isolated from tissue samples using the guanidinium thiocyanate method and poly(A)^+ RNA is purified using the oligo-(dT) cellulose method. Each poly(A)^+ RNA sample is reverse transcribed using MMLV reverse-transcriptase, 0.05 pg/μl oligo-(dT) primer (21mer), 1× first strand buffer, 0.03 units/μl RNase inhibitor, […], […], 500 μM dTTP, 40 μM dCTP, 40 μM dCTP-Cy3 (BDS) or dCTP-Cy5 (Amersham Biosciences). The reverse transcription reaction is performed in a […] containing 200 ng poly(A)^+ RNA with GEMBRIGHT kits (Incyte). Specific control poly(A)^+ RNAs are synthesized by in vitro transcription from non-coding yeast genomic DNA. […]
Sequences of the present invention are used to generate array elements. […] Array elements are amplified in thirty cycles of PCR from an initial quantity of 1-2 ng to a final quantity greater than 5 μg. […]
Reporter-labeled hybridization complexes are detected with a microscope equipped with an Innova 70 mixed gas 10 W laser (Coherent, Inc., Santa Clara Calif.) capable of generating spectral lines at 488 nm for excitation of Cy3 and at 632 nm for excitation of Cy5. […]
A grid is superimposed over the fluorescence signal image such that the signal from each spot is centered in each element of the grid. […]

6α-methyl-17-hydroxyprogesterone [medroxyprogesterone]
pharmacological activity greater than progesterone [1]: about 15 times

C[C@H]1C[C@H]2[C@@H]3CCC4=CC(=O)C=C[C@]4(C)[C@@]3(Cl)[C@@H](O)C[C@]2(C)[C@@]1(O)C(=O)CO [beclomethasone]
anti-inflammatory and vasoconstrictive effects greater than those produced by hydrocortisone [2]: 5000 times

B1: IL-4: a pleiotropic cytokine produced by activated T cells, mast cells, and basophils (protein, UniProt P05112 25-153, looked up)
Interleukin-4: HKCDITLQEIIKTLNSLTEQKTLCTELTVTDIFAASKNTTEKETFCRAATVLRQFYSHHEKDTRCLGATAQQFHRHKQLIRFLKRLDRNLWGLAGLNSCPVKEANQSTLENFLERLKTIMREKYSKCSS
expression of SEQ ID NO:37 increased in comparison to untreated PBMCs [3]: at least 2 fold
